According to US20240293439A1, “TREATMENT REGIMENS” (NuCana plc, priority 2017, published 2024):
Where “and” joins values, the source holds several entries; their conditions need not be identical. Equal values may be shown once. Entries after “also recorded” stand apart in the source; their conditions may differ.

Assays:
[1] = comparison value; cited from earlier work
[2] = system: thymidylate synthase (TS); experiment: Intracellular dTMP, TS and dUMP levels in PBMCs of treated subjects (UPLC-MS, Western blot); assay type: in vivo, patients; conditions: for intracellular TS level and/or activity / intracellular dTMP level: cells (PBMCs) of treated subjects
Procedure: Remove sample from the centrifuge carefully.
(§1) Vortex-mix for 30 seconds. Leave sample on ice for 15 minutes.
UPLC-MS for was used to detect dTMP Western blot was used to detect TS.

[3] = molecular target: T1, dihydropyrimidine dehydrogenase (DPD) (Homo sapiens, UniProt Q12882); conditions: catabolism in the liver; cited from earlier work
T1 construct: This is balanced by catabolism by dihydropyrimidine dehydrogenase (DPD) in the liver; host or cells: liver (of patients)
T1 sequence (Q12882 4-1025): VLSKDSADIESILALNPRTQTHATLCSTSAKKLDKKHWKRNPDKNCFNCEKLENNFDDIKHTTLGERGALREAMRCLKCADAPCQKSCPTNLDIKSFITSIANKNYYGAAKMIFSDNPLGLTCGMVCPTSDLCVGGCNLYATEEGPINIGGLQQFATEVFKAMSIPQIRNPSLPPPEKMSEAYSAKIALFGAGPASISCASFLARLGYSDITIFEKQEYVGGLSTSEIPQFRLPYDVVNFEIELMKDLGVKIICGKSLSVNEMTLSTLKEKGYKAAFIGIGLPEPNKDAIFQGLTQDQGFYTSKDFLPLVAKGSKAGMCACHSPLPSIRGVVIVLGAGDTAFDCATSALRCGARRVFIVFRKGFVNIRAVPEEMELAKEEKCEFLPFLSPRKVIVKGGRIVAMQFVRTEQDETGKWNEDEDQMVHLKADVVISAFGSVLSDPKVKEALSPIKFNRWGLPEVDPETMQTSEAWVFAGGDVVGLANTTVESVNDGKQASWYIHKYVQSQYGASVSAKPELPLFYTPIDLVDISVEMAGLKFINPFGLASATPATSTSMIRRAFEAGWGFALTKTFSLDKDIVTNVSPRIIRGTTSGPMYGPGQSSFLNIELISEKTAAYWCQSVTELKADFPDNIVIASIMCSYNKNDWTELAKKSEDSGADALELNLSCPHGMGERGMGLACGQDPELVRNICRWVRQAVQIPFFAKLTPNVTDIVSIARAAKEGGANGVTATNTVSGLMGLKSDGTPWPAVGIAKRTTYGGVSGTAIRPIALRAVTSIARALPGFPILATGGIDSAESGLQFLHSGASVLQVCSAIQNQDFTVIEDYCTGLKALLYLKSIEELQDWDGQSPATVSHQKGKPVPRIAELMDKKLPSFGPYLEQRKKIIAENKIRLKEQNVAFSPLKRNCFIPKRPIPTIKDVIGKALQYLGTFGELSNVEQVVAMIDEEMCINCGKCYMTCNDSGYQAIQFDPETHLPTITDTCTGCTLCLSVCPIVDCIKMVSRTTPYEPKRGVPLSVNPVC

[4] = patients treated with 5FU; cited from earlier work
[5] = in vivo
Procedure: The patients received NUC-3373, administered as a 30-minute to 2 hour intravenous injection on days 1, 8, 15 and 22 of a 28-day cycle regimen.
The cohorts treated to date received 125 mg/m^2, 250 mg/m^2, 500 mg/m^2 or 750 mg/m^2 NUC-3373 per administration.
Pharmacokinetic analysis of blood samples of the patients was then carried out.
Blood samples were collected on days 1 and 15 of a treatment cycle:
The blood samples should arrive in the lab within 2 hours of collection. Collect 8 ml of blood into CPT tubes (blood tubes should be centrifuged within 2 hours of blood collection). Remix the blood sample immediately prior to centrifugation by gently inverting the tube 8 to 10 times. Set centrifuge so that the start and finish is set to a slow acceleration (without break). Centrifuge at 18° C. for 20 minutes at 1,500 g. Remove sample from the centrifuge carefully. This will result in five layers: plasma (first); whitish cell (PBMC) layer [second]; polyester gel [third]; density solution [fourth] and, remaining granulocytes and RBCs [fifth]. Aspirate approximately half of the plasma without disturbing the cell layer. Collect the PBMC layer with a Pasteur Pipette and transfer to a 50 ml tube and add cold PBS (4° C.) to a final volume of 40 ml. Divide between two 50 ml tubes (20 ml per tube) and centrifuge for 5 minutes at 4° C. at 1,500 g. […]

[6] = formal dog toxicology studies; cited from earlier work
[7] = NuTide:301 study: detection of toxic byproducts FBAL and dhFU by UPLC-MS/MS after NUC-3373 administration; assay type: in vivo, patients; conditions: at the doses studied
Procedure: (§2) All patients have metastatic spread.
as §1
UPLC-MS/MS was used to detect dhFU and FBAL

[8] = NuTide:301 Phase 1 study: pharmacokinetic analysis of NUC-3373 in blood plasma; assay type: in vivo; conditions: human, iv, patients with advanced solid tumors, 125-750 mg/m^2, 1:1 mixture of S and R epimers
Procedure: as §2
NUC-3373 is presented as a single dose intravenous injection in a clear vial containing 250 mg/ml NUC-3373 in a solution of dimethylacetamide (DMA) and normal saline in the ratio of 80:20. The product is a clear yellow solution, free from visible particles.
In the study all patients were treated with a 1:1 mixture of NUC-3373 S and R epimers.
Centrifuge the 4 ml blood sample at 1,200 g at 18° C. for 10 minutes. Using a sterile plastic pipette (pastette), remove the resulting plasma and transfer ˜1.0 ml plasma into each of 2 cryovials (2 ml).

[9] = NuTide:301 clinical trial: occurrence of hand-foot syndrome; assay type: in vivo; conditions: 36 patients treated with NUC-3373, so far
From the text: as §2

Compound | plasma half-life of 5FU [1] | intracellular TS level and/or activity [2] | intracellular dTMP level [2] | fraction of 5-fluorouracil broken down by DPD [3] | patients developing hand-foot syndrome [4] | half-life of intracellular FUDR monophosphate ([5]; human) | detectability of intracellular FUDR monophosphate at late time point [5] | tolerability compared with 5FU [6] | dihydrofluorouracil (dhFU) detected following NUC-3373 administration [7] | α-fluoro-β-alanine (FBAL) detected following NUC-3373 administration [7] | half-life [8] | intracellular dUMP level ([2]; cells of treated subjects) | patients who developed hand-foot syndrome [9]
O=c1[nH]cc(F)c(=O)[nH]1 [5FU, 5-fluorouracil] | 8 to 14 min | not observed | not observed | More than 85% | 30-60% and 40-60% | – | – | – | – | – | – | – | –
O=c1[nH]c(=O)n([C@H]2C[C@H](O)[C@@H](COP(=O)(O)O)O2)cc1F [FUDR monophosphate] | – | – | – | – | – | 14.9 h | still detectable | – | – | – | – | – | –
C[C@H](NP(=O)(OC[C@H]1O[C@@H](n2cc(F)c(=O)[nH]c2=O)CC1O)Oc1cccc2ccccc12)C(=O)OCc1ccccc1 (stereo partly drawn) [NUC-3373, 5-fluoro-2′-deoxyuridine-5′-O-[1-naphthyl (benzoxy-L-alaninyl)] phosphate] | – | deplete | deplete | – | – | – | – | significantly better tolerated than 5FU | undetectable | undetectable; also recorded: very low levels | 9.7 h | increased accumulation | none
